Source: ChEMBL document CHEMBL1151970, “Cardioprotection with the parrodiene 2,4,6-octatrienal and its potassium salt through activation of the Akt-Bcl-2 survival pathway” (2009)
The source made the active and inactive calls. The rule behind the calls is not given here.

Columns and labels:
Heart [1] = assay: Cardioprotective activity in Langendorff perfused Sprague-Dawley rat heart assessed as reduction of pro-caspase 3 activation in ischemic reperfused myocardium at 50 mM preperfused 15 mins before global ischemia challenge for 30 mins followed by 120 mins of reperfusion by Western blotting; type: functional, tissue-based
Heart [2] = assay: Cardioprotective activity in Langendorff perfused Sprague-Dawley rat heart assessed as […] of Bcl2 at 50 mM preperfused 15 mins before global ischemia challenge for 30 mins followed by 120 mins of reperfusion by Western blotting; type: functional, tissue-based
Heart [3] = assay: Cardioprotective activity in Langendorff perfused Sprague-Dawley rat heart assessed as recovery of first derivative of left ventricular developed pressure at 50 mM preperfused 15 mins before global ischemia challenge for 30 mins followed by 120 mins of reperfusion; type: functional, tissue-based
Heart [4] = assay: Cardioprotective activity in Langendorff perfused Sprague-Dawley rat heart assessed as down regulation of HO1 at 50 mM preperfused 15 mins before global ischemia challenge for 30 mins followed by 120 mins of reperfusion by Western blotting; type: functional, tissue-based
Heart [5] = assay: Cardioprotective activity in Langendorff perfused Sprague-Dawley rat heart assessed as reduction in number of cardiomycotic apoptic cells at 50 mM preperfused 15 mins before global ischemia challenge for 30 mins followed by 120 mins of reperfusion by TUNEL assay; type: functional; set-up: scale not given: the % may be the effect or the level left
Heart [6] = assay: Cardioprotective activity in Langendorff perfused Sprague-Dawley rat heart assessed as activation of Akt phosphorylation at 50 mM preperfused 15 mins before global ischemia challenge for 30 mins followed by 120 mins of reperfusion; type: functional, tissue-based
Heart [7] = assay: Cardioprotective activity in Langendorff perfused Sprague-Dawley rat heart assessed as reduction of caspase 3 activation at 50 mM preperfused 15 mins before global ischemia challenge for 30 mins followed by 120 mins of reperfusion by Western blotting; type: functional, tissue-based
Heart [8] = assay: Cardioprotective activity in Langendorff perfused Sprague-Dawley rat heart assessed as reduction in myocardial infarction size at 50 mM preperfused 15 mins before global ischemia challenge for 30 mins followed by 120 mins of reperfusion by triphenyl tetrazolium chloride method; type: functional; set-up: scale not given: the % may be the effect or the level left
Heart [9] = assay: Cardioprotective activity in Langendorff perfused Sprague-Dawley rat heart assessed as prevention of cytochrom c release from cytosolic fraction at 50 mM preperfused 15 mins before global ischemia challenge for 30 mins followed by 120 mins of reperfusion by Western blotting; type: functional, tissue-based
Heart [10] = assay: Cardioprotective activity in Langendorff perfused Sprague-Dawley rat heart assessed as recovery of aortic pressure at 50 mM preperfused 15 mins before global ischemia challenge for 30 mins followed by 120 mins of reperfusion; type: functional, tissue-based
Heart [11] = assay: Cardioprotective activity in Langendorff perfused Sprague-Dawley rat heart assessed as recovery of left ventricular developed pressure at 50 mM preperfused 15 mins before global ischemia challenge for 30 mins followed by 120 mins of reperfusion; type: functional, tissue-based

C/C=C/C=C/C=C/C=O
Activity (Heart [1]): Active
Activity (Heart [2]): Active
Activity (Heart [3]): Active
Activity (Heart [4]): Active
Activity (Heart [5]): 15%
Activity (Heart [6]): Active
Activity (Heart [7]): Active
Activity (Heart [8]): 16%
Activity (Heart [9]): Active
Activity (Heart [10]): Active
Activity (Heart [11]): Active

C/C=C/C=C/C=C/C(=O)[O-].[K+]
Activity (Heart [1]): Active
Activity (Heart [2]): Active
Activity (Heart [3]): Active
Activity (Heart [4]): Active
Activity (Heart [5]): 13.6%
Activity (Heart [6]): Active
Activity (Heart [7]): Active
Activity (Heart [8]): 15%
Activity (Heart [9]): Active
Activity (Heart [10]): Active
Activity (Heart [11]): Active
